Source: patent US6204293A, “Inhibitors of protein isoprenyl transferases” (University of Pittsburgh, priority 1998, dated 2001)
Structures can show the parent of a compound that is named as a salt. Where two headings read alike, the source gives them in different places. Blank lines part the entries; values can stand above or below the compound they belong to.

Biological target: T1, Rat brain protein farnesyltransferase (Rattus norvegicus, UniProt Q02293+Q04631)
T1 construct: Rat brain protein farnesyltransferase activity is measured; from tissue; host or cells: rat brain
T1 sequence (Q02293 whole entry, one chain of several): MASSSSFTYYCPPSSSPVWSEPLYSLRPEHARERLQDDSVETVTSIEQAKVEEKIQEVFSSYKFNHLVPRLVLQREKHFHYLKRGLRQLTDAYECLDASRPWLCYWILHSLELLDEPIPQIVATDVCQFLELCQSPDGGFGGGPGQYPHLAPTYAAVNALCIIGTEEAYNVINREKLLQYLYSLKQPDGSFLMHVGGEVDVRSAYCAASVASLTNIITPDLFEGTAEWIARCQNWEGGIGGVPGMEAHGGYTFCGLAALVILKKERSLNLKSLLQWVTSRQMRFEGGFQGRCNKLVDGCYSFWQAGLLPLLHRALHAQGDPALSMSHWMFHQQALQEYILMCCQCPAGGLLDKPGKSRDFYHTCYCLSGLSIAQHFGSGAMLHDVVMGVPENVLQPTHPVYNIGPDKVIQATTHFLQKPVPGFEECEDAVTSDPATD
Test: % inhibition of farnesylation, scintillation proximity assay with biotin-K Ras B fragment
Format: biochemical
Details: for inhibition at 1 µM: read-out: % inhibition at 1 × 10^-6 M; for % inhibition at 1 × 10^-8 M: Table 4
Procedure, shortened: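 Rat brain enzyme, purified through three steps, in a scintillation proximity assay kit with biotin-K Ras B fragment substrate at 0.1 mM final. Value is % inhibition of farnesylation.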

[1] = read-out: % inhibition at 1 × 10^-7 M, Table 3, 1 × 10^-7 M
[2] = read-out: % inhibition at 1 × 10^-7 M
[3] = read-out: % inhibition at 0.01 μM (**), Table 6, ** footnote 0.01 μM (title: 0.01 mM)

SMILES: CSCC[C@H](NC(=O)c1ccc(COCCCCc2ccccc2)cc1-c1ccccc1C)C(=O)O [Example 601]
inhibition at 0.1 µM [1]: 92%

% inhibition at 1 × 10^-6 M (Table 2, 1 × 10^-6 M): 31%
SMILES: CSCC[C@H](NC(=O)c1ccc(CNc2cccc(C(N)=O)c2)cc1-c1ccccc1)C(=O)O [Example 682]

% inhibition at 1 × 10^-6 M (Table 2, 1 × 10^-6 M): 96%
SMILES: CSCC[C@H](NC(=O)c1ccc(/C=C/c2cncnc2)cc1-c1ccccc1C)C(=O)O [Example 494]

% inhibition at 1 × 10^-6 M (Table 2, 1 × 10^-6 M): 43%
SMILES: CCCCON(CCC1CCCCC1)Cc1ccc(C(=O)N[C@@H](CCS(C)(=O)=O)C(=O)O)c(-c2ccccc2C)c1 [Example 298]

SMILES: CSCC[C@@H](C(=O)O)N(C)C(=O)c1ccc(COCCCC2CCCCC2)cc1-c1ccccc1C [Example 597, N-[4-(3-cyclohexylpropoxymethyl)-2-(2-methylphenyl)benzoyl]-N-methylmethionine lithium salt]
inhibition at 0.1 µM [2]: 75%

SMILES: CSCC[C@H](NC(=O)c1ccc(COCCc2cccc3ccccc23)cc1-c1ccccc1C)C(=O)O [Example 592, N-[4-(2-naphth-1-ylethoxymethyl)-2-(2-methylphenyl)benzoyl]methionine lithium salt]
inhibition at 0.1 µM [2]: 93%

% inhibition at 1 × 10^-6 M (Table 2, 1 × 10^-6 M): 94%
SMILES: CSCC[C@H](NC(=O)c1ccc(/C=C/c2cnc(Oc3ccccc3)cn2)cc1-c1ccccc1C)C(=O)O [Example 812]

inhibition at 1 µM (Table 2, 1 × 10^-6 M): 98%
SMILES: CSCC[C@H](NC(=O)c1ccc(SCCc2ccccc2)cc1-c1ccccc1C)C(=O)O [Example 498, N-[4-(2-phenylethylthio)-2-(2-methylphenyl)benzoyl]methionine]

SMILES: CCCCC(OCc1ccc(C(=O)N[C@@H](CCSC)C(=O)O)c(-c2ccccc2C)c1)c1ccco1 (some centres unmarked) [Example 825, N-[4-(1-furan-2-ylpentyloxymethyl)-2-(2-methylphenyl)benzoyl]methionine lithium salt]
inhibition at 0.1 µM [2]: 79%

% inhibition at 1 × 10^-6 M (Table 2, 1 × 10^-6 M): 56%
SMILES: CSCCC(NC(=O)c1ccc(NC(=O)c2cncnc2)cc1-c1ccccc1)C(=O)O (centres unmarked) [Example 219]

% inhibition at 1 × 10^-6 M (Table 2, 1 × 10^-6 M): 54%
SMILES: CSCC[C@H](NC(=O)c1ccc(CNc2ccccc2C(N)=O)cc1-c1ccccc1)C(=O)O [Example 644]

inhibition at 0.1 µM [1]: 49%
SMILES: CSCC[C@H](NC(=O)c1ccc(CSc2nnc(N)s2)cc1-c1ccccc1C)C(=O)O [Example 734]

SMILES: CSCC[C@H](NC(=O)c1ccc(CO[C@H](COC(C)C)CC2CCCCC2)cc1-c1ccccc1C)C(=O)O [Example 1306, N-[4-[(S)-3-Cyclohexyl-1-(1-methylethoxy)prop-2-yloxymethyl]-2-(2-methylphenyl)benzoyl]methionine Lithium Salt]
inhibition at 0.01 µM (read-out: % inhibition at 0.01 μM (**)): 85%

inhibition at 1 µM (Table 2, 1 × 10^-6 M): 95%
SMILES: CSCC[C@H](NC(=O)c1ccc(COCC(CC2CCCCC2)CC2CCCCC2)cc1-c1ccccc1C)C(=O)O [Example 889, lithium salt]

% inhibition at 1 × 10^-6 M (Table 2, 1 × 10^-6 M): 35%
SMILES: COc1ccc(CNCc2ccc(C(=O)N[C@@H](CCSC)C(=O)O)c(-c3ccccc3)c2)c(OC)c1 [Example 655]

SMILES: CSCC[C@H](NC(=O)c1ccc(COCc2ccc(-c3cccc(C(F)(F)F)c3)o2)cc1-c1ccccc1C)C(=O)O [Example 441, N-[4-(5-(3-trifluoromethylphenyl)furan-2-ylmethoxymethyl)-2-(2-methylphenyl)benzoyl]methionine lithium salt]
inhibition at 0.1 µM [2]: 91%

% inhibition at 1 × 10^-5 M (Table 1, 1 × 10^-5 M): 73%
SMILES: CSCC[C@H](NC(=O)c1ccc(CNc2cccc(OC(F)(F)F)c2)cc1-c1ccccc1)C(=O)O [Example 678]

% inhibition at 0.1 μM (*) (Table 6, * footnote 0.1 μM (title: 0.1 mM)): 87%
SMILES: CCCCN(CCN1CCCCC1)Cc1ccc(C(=O)N[C@@H](CCSC)C(=O)O)c(-c2ccccc2C)c1 [Example 1196]

% inhibition at 1 × 10^-8 M: 87%
SMILES: CSCC[C@H](NC(=O)c1ccc(CN(Cc2ccccc2)c2ccc(Cl)cc2)cc1-c1ccccc1C)C(=O)O [Example 848]

% inhibition at 1 × 10^-8 M: 52%
SMILES: CCSC[C@H](CC1CCCCC1)N(C=O)Cc1ccc(C(=O)N[C@@H](CCSC)C(=O)O)c(-c2ccccc2C)c1 [Example 946]

inhibition at 1 µM (Table 2, 1 × 10^-6 M): 88%
SMILES: Cc1ccccc1-c1cc(COCc2ccccc2)ccc1C(=O)N[C@@H](CCS(C)(=O)=O)C(=O)O [Example 576, N-2-[4-(benzyloxymethyl)-2-(2-methylphenyl)benzoyl]amino-4-methanesulfonylbutanoic acid lithium salt]

% inhibition at 1 × 10^-6 M (Table 2, 1 × 10^-6 M): 34%
SMILES: CSCC[C@H](NC(=O)c1ccc(CNCCN2CCCC2)cc1-c1ccccc1)C(=O)O [Example 641]

% inhibition at 1 × 10^-8 M: 69%
SMILES: CSCC[C@H](NC(=O)c1ccc(CN(Cc2cncs2)C2CCSCC2)cc1-c1ccccc1C)C(=O)O [Example 881]

inhibition at 0.1 µM [1]: 91%
SMILES: COc1ccccc1CCOCc1ccc(C(=O)N[C@@H](CCSC)C(=O)O)c(-c2ccccc2C)c1 [Example 589, N-[4-(2-(2-methoxyphenyl)ethoxymethyl)-2-(2-methylphenyl)benzoyl]methioninelithium salt]

% inhibition at 1 × 10^-6 M (Table 2, 1 × 10^-6 M): 92%
SMILES: CSCC[C@H](NC(=O)c1ccc(/C=C/c2ccc3ccccc3c2)cc1-c1ccccc1C)C(=O)O [Example 465]

% inhibition at 1 × 10^-6 M (Table 2, 1 × 10^-6 M): 61%
SMILES: CSCC[C@H](NC(=O)c1ccc(CNCCS)cc1-c1ccccc1)C(=O)O [Example 626]

% inhibition at 1 × 10^-6 M (Table 2, 1 × 10^-6 M): 92%
SMILES: CSCC[C@H](NC(=O)c1ccc(C=CCc2ccccc2)cc1-c1ccccc1C)C(=O)O [Example 469]

inhibition at 0.1 µM [1]: 84%
SMILES: CSCC[C@H](NC(=O)c1ccc(CSc2ncnc3[nH]ncc23)cc1-c1ccccc1C)C(=O)O [Example 746]

% inhibition at 1 × 10^-6 M (Table 2, 1 × 10^-6 M): 32%
SMILES: CSCC[C@H](NC(=O)c1ccc(NC(=O)C[C@H]2C[C@@H](C(C)=O)C2(C)C)cc1-c1ccccc1)C(=O)O [Example 751]

% inhibition at 1 × 10^-7 M (Table 3, 1 × 10^-7 M): 85%
SMILES: CCCCN(CCCC)C(=O)CNCc1ccc(C(=O)N[C@@H](CCSC)C(=O)O)c(-c2ccccc2C)c1 [Example 912]

inhibition at 0.1 µM [1]: 93%
SMILES: CSCC[C@H](NC(=O)c1ccc(CSc2ccc3ccccc3c2)cc1-c1ccccc1C)C(=O)O [Example 551, N-[4-naphth-2-ylthiomethyl-2-(2-methylphenyl)benzoyl]methionine]

inhibition at 1 µM (Table 2, 1 × 10^-6 M): 87%
SMILES: CSCC[C@H](NC(=O)c1cc(Cc2ccccc2)c(COCCCc2ccccc2)cc1-c1ccccc1C)C(=O)O [Example 925]

% inhibition at 1 × 10^-6 M (Table 2, 1 × 10^-6 M): 40%
SMILES: CSCC[C@H](NC(=O)c1ccc(NC(=O)Cc2ccccc2)cc1-c1ccccc1C)C(=O)O [Example 540]

SMILES: CSCC[C@H](NC(=O)c1ccc(OCCCCOc2ccccc2)cc1-c1ccccc1C)C(=O)O [Example 568, N-[4-(3-phenoxy)butoxy-2-(2-methylphenyl)benzoyl]methionine. lithium salt]
inhibition at 1 µM (Table 2, 1 × 10^-6 M): 93%

inhibition at 0.01 µM [3]: 90%
SMILES: CC[S+]([O-])C[C@H](CC1CCCCC1)OCc1ccc(C(=O)N[C@@H](CCSC)C(=O)O)c(-c2ccccc2C)c1 (some centres unmarked) [Example 1310, Lithium Salt]

SMILES: CSCC[C@H](NC(=O)c1ccc(COC(Cc2ccccc2)c2cncs2)cc1-c1ccccc1C)C(=O)O (some centres unmarked) [Example 828, N-[4-(1-thiazol-5-yl-2-phenylethoxymethyl)-2-(2-methylphenyl)benzoyl]methionine lithium salt]
inhibition at 0.01 µM (read-out: % inhibition at 1 × 10^-8 M): 87%

SMILES: CSCC[C@H](NC(=O)c1ccc(COCc2cccs2)cc1-c1ccccc1C)C(=O)O [Example 273, [4-(2-thienylmethoxymethyl)-2-(2-methylphenyl)benzoyl]methionine Lithium salt]
inhibition at 1 µM: 96%

inhibition at 1 µM (Table 2, 1 × 10^-6 M): 94%
SMILES: CSCC[C@H](NC(=O)c1ccc(Sc2ccc3ccccc3c2)cc1-c1ccccc1C)C(=O)O [Example 497, N-[4-(naphth-2-ylthio)-2-(2-methylphenyl)benzoyl]methionine]

% inhibition at 1 × 10^-6 M (Table 2, 1 × 10^-6 M): 98%
SMILES: CSCC[C@H](NC(=O)c1ccc(CN(C)C(C)(C)Cc2ccccc2)cc1-c1ccccc1C)C(=O)O [Example 309]

inhibition at 0.1 µM (read-out: % inhibition at 0.1 μM (*), Table 6, * footnote 0.1 μM (title: 0.1 mM)): 96%
SMILES: CSCC[C@H](NC(=O)c1ccc(CO[C@H](COCCC(C)(C)C)CC2CCCCC2)cc1-c1ccccc1C)C(=O)O [Example 1309, N-[4-(3-Cyclohexyl-1-(3,3-dimethylbut-1-yloxy)prop-2-yloxymethyl)-2-(2-methylphenyl)benzoyl]methionine Lithium Salt]

% inhibition at 1 × 10^-6 M (Table 2, 1 × 10^-6 M): 95%
SMILES: CSCC[C@H](NC(=O)c1ccc(CNc2ccc(N3CCCCC3)cc2)cc1-c1ccccc1C)C(=O)O [Example 862]

% inhibition at 1 × 10^-6 M (Table 2, 1 × 10^-6 M): 92%
SMILES: CSCC[C@H](NC(=O)c1ccc(CN(Cc2ccco2)C(C)C)cc1-c1ccccc1C)C(=O)O [Example 831]

inhibition at 0.01 µM [3]: 91%
SMILES: CCCOC[C@H](CC1CCCCC1)OCc1ccc(C(=O)N[C@@H](CCSC)C(=O)O)c(-c2ccccc2C)c1 [Example 1305, N-[4-(3-Cyclohexyl-1-propoxyprop-2-yloxymethyl)-2-(2-methylphenyl)benzoyl]methionine Lithium Salt]

% inhibition at 0.01 μM (**) (Table 6, ** footnote 0.01 μM (title: 0.01 mM)): 89%
SMILES: COCCN(CCC1CCCCC1)Cc1ccc(C(=O)N[C@@H](CCSC)C(=O)O)c(-c2ccccc2C)c1 [Example 1104]

SMILES: CCCOc1cccc(COCc2ccc(C(=O)N[C@@H](CCSC)C(=O)O)c(-c3ccccc3C)c2)c1 [Example 1209, N-[4-(3-(1-Propoxy)benzyloxymethyl)-2-(2-methylphenyl)benzoyl]methionine lithium salt]
inhibition at 0.1 µM (read-out: % inhibition at 0.1 μM (*)): 87%

SMILES: CSCC[C@H](NC(=O)c1ccc(COCc2ccc(C(C)C)cc2)cc1-c1ccccc1C)C(=O)O [Example 940, N-[4-(4-isopropylbenzyloxymethyl)-2-(2-methylphenyl)benzoyl]methionine lithium salt]
inhibition at 0.1 µM [2]: 92%

% inhibition at 1 × 10^-7 M (Table 3, 1 × 10^-7 M): 56%
SMILES: CSCC[C@H](NC(=O)c1ccc(NC(=O)CN)cc1-c1ccccc1)C(=O)O [Example 748]
